This experiment deals with T1, UGT8 (Homo sapiens, UniProt Q16880).
T1 construct: host or cells: OE19 cells
T1 sequence (Q16880 21-541): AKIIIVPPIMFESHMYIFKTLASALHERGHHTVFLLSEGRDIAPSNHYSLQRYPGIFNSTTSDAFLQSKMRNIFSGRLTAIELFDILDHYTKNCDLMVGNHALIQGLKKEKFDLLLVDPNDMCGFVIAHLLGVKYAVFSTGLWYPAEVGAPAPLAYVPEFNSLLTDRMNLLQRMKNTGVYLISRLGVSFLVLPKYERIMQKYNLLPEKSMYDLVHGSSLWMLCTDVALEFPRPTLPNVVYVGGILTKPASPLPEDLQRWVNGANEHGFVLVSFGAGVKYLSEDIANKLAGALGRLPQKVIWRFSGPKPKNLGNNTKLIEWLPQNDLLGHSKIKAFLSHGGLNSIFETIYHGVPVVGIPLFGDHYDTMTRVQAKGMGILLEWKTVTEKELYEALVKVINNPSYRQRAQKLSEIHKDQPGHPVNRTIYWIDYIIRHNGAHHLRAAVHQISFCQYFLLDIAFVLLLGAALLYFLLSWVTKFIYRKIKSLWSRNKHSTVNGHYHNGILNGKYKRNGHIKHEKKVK
Nature of the experiment: In vitro sulfatide (SFT) synthesis inhibition in OE19 cells, LC-MS/MS readout. The note with it: 72 hr, sulfatide by LC-MS/MS, read-out: Potency range (IC50, In-vitro SFT). The format is cell-based. The procedure:
For medium throughput screening, library compounds were dispensed into CellBIND 384 well plates to a final concentration of 10 μM. OE19 cells (Sigma) were grown in to 70-90% confluency in RPMI 1640+L-glutamine and […]; were trypsinized to achieve suspension and were aliquoted at 2,500 cells/well, total well volume 50 μl. Plates were incubated 72 hr at 37° C. in 5% CO2; supernatant was removed and plates were dried, heat-sealed and stored at −20° C. until analysis.
For IC50 determinations, the same procedure was followed except that test compounds were added to the plate as dose-downs in triplicate to yield concentration response curves.
Mass Spectrometer Analysis of Sulfatide (SFT):
Assay plates were thawed and 85 μl mobile phase B (5 mM ammonium formate^+0.2% formic acid in 50:50 methanol:acetonitrile). Fifteen μl 20 ng/ml C17 SFT in mobile phase B was added as an internal standard.
SFT was analyzed using an Applied Biosystems API-4000 triple quad mass spectrometer interfaced to a Thermo Scientific Multiplex system (LX-4) equipped with four pumps. Chromatography of OE19 cell samples or 2B5-mouse cells treated with compounds was performed using a Waters Acquity UPLC BEH C8 2.1×50 mm column with 1.7 um particle size. The chromatography was performed using the following mobile phases. Mobile phase A (MPA): 0.2% formic acid and 5 mM ammonium formate in deionized water; MPB: see above. The LC method was run in isocratic mode for 4 sequentially running columns using 95% MPB and 5% MPA with flow rate of 1 ml/min and a column temperature of 60° C.
The Triple quad mass spectrometer was run in Negative Ionization mode monitoring the following MRM transitions and using the following parameters:
Electrospray voltage was […], and source temperature was 550° C.

What is called IC50 is the concentration at which inhibition is half-maximal.

Where a name gives a salt, the structure may show the parent alone.

As to `CNC(=O)c1csc2c(C(F)(F)F)cc(N3CCN(CC(=O)NC(C)C)C(C)(C)C3)nc12` [Example 49, 5-(4-(2-(Isopropylamino)-2-oxoethyl)-3,3-dimethylpiperazin-1-yl)-N-methyl-7-(trifluoromethyl)thieno[3,2-b]pyridine-3-carboxamide], the IC50 was under 0.1 µM.

As for `CNC(=O)c1csc2c(C(F)(F)F)cc(OC3(C)CN(C(=O)OC(C)(C)C)C3)nc12` [Example 269, tert-Butyl 3-methyl-3-((3-(methylcarbamoyl)-7-(trifluoromethyl)thieno[3,2-b]pyridin-5-yl)oxy)azetidine-1-carboxylate], the IC50 fell in the range of 0.1 to 1 µM.

As to `CNC(=O)c1csc2c(C(F)(F)F)cc(N3CCC(OC(=O)N4CC5(CCN5C)C4)CC3)nc12` [Example 806, 1-(3-(Methylcarbamoyl)-7-(trifluoromethyl)thieno[3,2-b]pyridin-5-yl)piperidin-4-yl 1-methyl-1,6-diazaspiro[3.3]heptane-6-carboxylate], the IC50 was under 0.1 µM.

For the compound `CNC(=O)c1csc2c(C(F)(F)F)cc(N3CC[C@@H](OC(=O)NC(C)C)[C@H](F)C3)nc12` [Example 495, (3R,4R)-3-Fluoro-1-(3-(methylcarbamoyl)-7-(trifluoromethyl)thieno[3,2-b]pyridin-5-yl)piperidin-4-yl isopropylcarbamate], the IC50 was under 0.1 µM.

Consider `CNC(=O)c1csc2c(C(F)(F)F)cc(N3CCC(OC(=O)N4C[C@@H](N(C)C)[C@@H]4C)CC3)nc12` [Example 794, 1-(3-(Methylcarbamoyl)-7-(trifluoromethyl)thieno[3,2-b]pyridin-5-yl)piperidin-4-yl (2S,3R)-3-(dimethylamino)-2-methylazetidine-1-carboxylate], for which the IC50 was under 0.1 µM.

Take `CNC(=O)c1csc2c(C(F)(F)F)cc(N3CCN(Cc4nc(C(C)C)cs4)CC3)nc12` [Example 528, 5-(4-((4-Isopropylthiazol-2-yl)methyl)piperazin-1-yl)-N-methyl-7-(trifluoromethyl)thieno[3,2-b]pyridine-3-carboxamide]: the half-maximal inhibitory concentration (IC50) was under 0.1 µM.

As for `CNC(=O)c1csc2c(C(F)(F)F)cc(N3CCN(CC4CN(C(C)C)CCO4)CC3)nc12` (stereo not drawn) [Example 552, 5-(4-((4-Isopropylmorpholin-2-yl)methyl)piperazin-1-yl)-N-methyl-7-(trifluoromethyl)thieno[3,2-b]pyridine-3-carboxamide trifluoroacetate], the IC50 was over 1 µM.

`CNC(=O)c1csc2c(C(F)(F)F)cc(OC3(C)CN(C(=O)OCCOC(F)(F)F)C3)nc12` [Example 254, 2-(Trifluoromethoxy)ethyl 3-methyl-3-((3-(methylcarbamoyl)-7-(trifluoromethyl)thieno[3,2-b]pyridin-5-yl)oxy)azetidine-1-carboxylate]: the 50% inhibitory concentration (IC50) is under 0.1 µM.

`CNC(=O)c1csc2c(C(F)(F)F)cc(O[C@@H]3CCN(C(=O)OC(C)(C)C)[C@@H](C)C3)nc12` (racemic) [Example 368, (+/−)-tert-Butyl trans-2-methyl-4-((3-(methylcarbamoyl)-7-(trifluoromethyl)thieno[3,2-b]pyridin-5-yl)oxy)piperidine-1-carboxylate]: the IC50 was 0.1 to 1 µM.

Turning to `CNC(=O)c1csc2c(C(F)(F)F)cc(N3CCN(C(=O)OCC4CC4)CC3)nc12` [Example 780, Cyclopropylmethyl 4-(3-(methylcarbamoyl)-7-(trifluoromethyl)thieno[3,2-b]pyridin-5-yl)piperazine-1-carboxylate], the half-inhibitory concentration (IC50) was under 0.1 µM.

`CC(C)(C)NC(=O)OC1CCN(c2cc(C(F)(F)F)c3scc(C(=O)N4CCC4)c3n2)CC1` [Example 422, 1-(3-(Azetidine-1-carbonyl)-7-(trifluoromethyl)thieno[3,2-b]pyridin-5-yl)piperidin-4-yl tert-butylcarbamate]: the IC50 is 0.1 to 1 µM.

In the case of `CNC(=O)c1csc2c(C(F)(F)F)cc(N3CCC(NC(=O)OCCC#N)CC3)nc12` [Example 505, 2-Cyanoethyl (1-(3-(methylcarbamoyl)-7-(trifluoromethyl)thieno[3,2-b]pyridin-5-yl)piperidin-4-yl)carbamate], the IC50 was under 0.1 µM.
